From patent US8778919B2, “Cyclic anilino—pyridinotriazines” (Janssen Pharmaceutica NV, priority 2005, dated 2014)

What was measured:
[1] = tested on: Chang cells; assay: GSK-3 cellular assay (C2): 14C-D-glucose incorporation into glycogen; format: cell-based; conditions: increase in D-glucose incorporation into glycogen, test concentration of 10^−6 M
Method in brief: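 After 3 days of culture, Chang cells were switched to serum- and glucose-free DMEM and given compound at 10^−6 M plus substrate (3 mM glucose, 0.5 μCi ¹⁴C-D-glucose) for 90 min. Glycogen was isolated by KOH extraction and ethanol precipitation, then scintillation-counted. Scores ran from 1 (10–30% increase in incorporation) to 4 (>80%).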

[2] = molecular target: T1, Aurora-A (h) (Homo sapiens, UniProt O14965); assay: Kinase profiling C3.1 Aurora-A human; format: biochemical; conditions: test concentration of 10^−6 M
T1 sequence (O14965 1-403): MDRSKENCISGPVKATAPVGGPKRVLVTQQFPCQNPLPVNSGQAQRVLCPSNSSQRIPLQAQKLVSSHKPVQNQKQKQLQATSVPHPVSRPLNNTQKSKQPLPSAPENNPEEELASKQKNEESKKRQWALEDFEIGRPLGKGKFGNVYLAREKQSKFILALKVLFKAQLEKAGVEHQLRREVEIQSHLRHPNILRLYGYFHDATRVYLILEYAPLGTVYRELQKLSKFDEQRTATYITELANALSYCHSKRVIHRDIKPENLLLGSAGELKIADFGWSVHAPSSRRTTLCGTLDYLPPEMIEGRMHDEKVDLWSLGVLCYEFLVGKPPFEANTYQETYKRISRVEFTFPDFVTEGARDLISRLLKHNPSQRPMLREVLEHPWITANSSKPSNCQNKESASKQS
Description: (§1) The in vitro inhibition of a panel of kinases was assessed using either the glass-fiber filter technology as described by Davies, S. P. et al., Biochem J. (2000), 351; p. 95-105. In the glass-fiber filter technology the activity of the kinase of interest is measured using an appropriate substrate that is incubated with the aforementioned kinase protein in the presence of (^33P) radiolabeled ATP. (^33P) Phosporylation of the substrate is subsequently measured as radioactivity bound on a glassfiber-filter.
(§2) All kinases are pre-diluted to a 10× working concentration prior to addition into the assay. The composition of the dilution buffer for each kinase is detailed below.
(§3) All substrates are dissolved and diluted to working stocks in de-ionised water, apart from histone H1 that is stored in 10× working stock in 20 mM MOPS pH 7.4.
(§4) In a final reaction volume of 25 μl, Aurora-A (h) (5-10 mU) is incubated with 8 mM MOPS pH 7.0, 0.2 mM EDTA, 200 μM LRRASLG (Kemptide), 10 mM MgAcetate and [γ-^33P-ATP] (specific activity approx. 500 cpm/pmol, concentration as required). The reaction is initiated by the addition of the MgATP mix. After incubation for 40 minutes at room temperature, the reaction is stopped by the addition of 5 μl of a 3% phosphoric acid solution. 10 μl of the reaction is then spotted onto a P30 filtermat and washed three times for 5 minutes in 50 mM phosphoric acid and once in methanol prior to drying and scintillation counting.

[3] = molecular target: CDK2/cyclinA (h) (Homo sapiens, UniProt P24941); assay: Kinase profiling C3.3 CDK2/cyclinA human; format: biochemical; conditions: test concentration of 10^−6 M
Method in brief: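 Human CDK2/cyclinA (5-10 mU) phosphorylates 0.1 mg/ml histone H1 in 8 mM MOPS pH 7.0, EDTA, 10 mM Mg acetate with [γ-33P]ATP, 40 min at room temperature. After phosphoric acid stop, filter-bound 33P counted by scintillation.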

[4] = molecular target: CDK6/cyclinD3 human (Homo sapiens, UniProt Q00534); assay: Kinase profiling C3.7 CDK6/cyclinD3 human; format: biochemical; conditions: CDK6/cyclinD3, test concentration of 10^−6 M
[5] = molecular target: Yes (h) (Homo sapiens, UniProt P07947); assay: Kinase profiling C3.10 Yes human; format: biochemical; conditions: test concentration of 10^−6 M
Description: as §1, §2, §3
as §4, with “μl, Yes” for “μl, Aurora-A”, “EDTA, 0.1 mg/ml poly(Glu, Tyr) 4:1,” for “EDTA, 200 μM LRRASLG (Kemptide),”, “a Filtermat A” for “a P30 filtermat”, “in 75” for “in 50”

Yes (h), sequence (P07947 whole entry): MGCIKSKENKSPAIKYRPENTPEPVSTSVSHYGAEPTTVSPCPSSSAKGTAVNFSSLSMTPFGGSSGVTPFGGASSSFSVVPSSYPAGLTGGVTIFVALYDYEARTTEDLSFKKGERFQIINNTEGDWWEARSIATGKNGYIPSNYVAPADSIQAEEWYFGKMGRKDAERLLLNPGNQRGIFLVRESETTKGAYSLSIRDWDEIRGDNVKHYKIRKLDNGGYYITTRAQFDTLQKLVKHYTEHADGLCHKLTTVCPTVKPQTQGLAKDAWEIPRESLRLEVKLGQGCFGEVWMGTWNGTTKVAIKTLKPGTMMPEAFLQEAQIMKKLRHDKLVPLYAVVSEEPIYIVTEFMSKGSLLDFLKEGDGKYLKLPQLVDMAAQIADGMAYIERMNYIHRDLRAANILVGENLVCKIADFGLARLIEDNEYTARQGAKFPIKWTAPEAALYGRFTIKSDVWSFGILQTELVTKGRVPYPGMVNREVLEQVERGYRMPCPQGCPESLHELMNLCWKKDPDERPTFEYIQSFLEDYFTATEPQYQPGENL
CDK6/cyclinD3 human, sequence (Q00534 whole entry): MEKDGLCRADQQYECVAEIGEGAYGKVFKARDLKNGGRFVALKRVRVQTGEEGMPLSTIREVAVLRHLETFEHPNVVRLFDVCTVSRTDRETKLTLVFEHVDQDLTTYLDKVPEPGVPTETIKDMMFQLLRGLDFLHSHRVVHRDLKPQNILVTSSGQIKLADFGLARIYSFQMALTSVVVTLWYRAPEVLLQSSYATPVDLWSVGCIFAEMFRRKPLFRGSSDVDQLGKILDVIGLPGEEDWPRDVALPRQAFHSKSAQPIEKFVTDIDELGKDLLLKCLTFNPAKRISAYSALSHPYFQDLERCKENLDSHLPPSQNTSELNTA
CDK6/cyclinD3 human, sequence (P30281 whole entry partner): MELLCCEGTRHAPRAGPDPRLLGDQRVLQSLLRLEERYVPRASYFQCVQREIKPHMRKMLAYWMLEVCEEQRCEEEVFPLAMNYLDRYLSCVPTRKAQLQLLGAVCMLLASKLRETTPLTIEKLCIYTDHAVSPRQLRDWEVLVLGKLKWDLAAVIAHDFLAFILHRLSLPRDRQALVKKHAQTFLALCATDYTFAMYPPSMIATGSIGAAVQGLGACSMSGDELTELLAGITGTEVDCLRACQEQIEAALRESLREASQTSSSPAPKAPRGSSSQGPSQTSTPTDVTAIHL

| C3.1 score [2] | C3.3 score [3] | C3.7 score [4] | C3.10 score [5] | SMILES | C2 Score [1] |
| --- | --- | --- | --- | --- | --- |
| 1 (Score 1 = 10-30% inhibition) | 4 (Score 4 = >80% inhibition) | 4 (Score 4 = >80% inhibition) | 2 (Score 2 = 30-60% inhibition) | CN1CC(=O)NCCCc2cc(ccn2)-c2ncnc(n2)Nc2cccc(c2)C1 [Compound 10] | 4 (Score 4=>80% increase in D-glucose incorporation) |
| 2 (Score 2 = 30-60% inhibition) | 4 (Score 4 = >80% inhibition) | 4 (Score 4 = >80% inhibition) | 4 (Score 4 = >80% inhibition) | CN1CC(=O)NC/C(Cl)=C/c2cc(ccn2)-c2ncnc(n2)Nc2cccc(c2)C1 [Compound 2] | 4 (Score 4=>80% increase in D-glucose incorporation) |
| 1 (Score 1 = 10-30% inhibition) | 4 (Score 4 = >80% inhibition) | 3 (Score 3 = 60-80% inhibition) | 2 (Score 2 = 30-60% inhibition) | O=C1CCN2CCN(CC2)Cc2cccc(c2)Nc2ncnc(n2)-c2ccnc(c2)CCCN1 [Compound 35] | 4 (Score 4=>80% increase in D-glucose incorporation) |
